ChEMBL document CHEMBL4811247, “Small molecule and macrocyclic pyrazole derived inhibitors of myeloperoxidase (MPO)” (Bioorg Med Chem Lett, 2021)

How the values were obtained:
[1] = target: T1, Myeloperoxidase (Homo sapiens, UniProt P05164)
T1 sequence (P05164 whole entry): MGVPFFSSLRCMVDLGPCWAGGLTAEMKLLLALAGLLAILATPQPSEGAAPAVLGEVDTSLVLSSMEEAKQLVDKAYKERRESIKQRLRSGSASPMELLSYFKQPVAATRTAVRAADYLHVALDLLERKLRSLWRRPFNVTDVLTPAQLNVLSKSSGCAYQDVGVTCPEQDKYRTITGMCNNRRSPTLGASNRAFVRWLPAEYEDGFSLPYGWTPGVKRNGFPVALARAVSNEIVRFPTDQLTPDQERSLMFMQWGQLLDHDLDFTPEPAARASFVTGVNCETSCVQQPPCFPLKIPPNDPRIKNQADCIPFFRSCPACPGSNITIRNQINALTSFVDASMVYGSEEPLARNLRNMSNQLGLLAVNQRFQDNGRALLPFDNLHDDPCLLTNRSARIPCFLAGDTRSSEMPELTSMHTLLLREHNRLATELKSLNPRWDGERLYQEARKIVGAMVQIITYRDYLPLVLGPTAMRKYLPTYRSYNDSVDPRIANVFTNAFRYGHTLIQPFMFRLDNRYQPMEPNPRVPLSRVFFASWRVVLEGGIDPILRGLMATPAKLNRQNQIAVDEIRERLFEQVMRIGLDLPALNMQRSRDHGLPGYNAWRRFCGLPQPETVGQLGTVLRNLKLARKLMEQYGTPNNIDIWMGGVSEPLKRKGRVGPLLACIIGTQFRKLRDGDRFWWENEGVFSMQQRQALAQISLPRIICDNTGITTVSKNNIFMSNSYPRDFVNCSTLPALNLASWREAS
Description: Inhibition of MPO (unknown origin) chlorination activity incubated for 10 mins followed by NaCl addition by aminophenyl fluorescein assay

[2] = target: T2, Thyroid peroxidase (Homo sapiens, UniProt P07202); assay: (§1) Inhibition of C-terminal hexaHis-tagged TPO (unknown origin) expressed in Trichoplusia ni insect cells using 3-iodo tyrosine as substrate preincubated for 10 mins followed by substrate and H2O2 addition and further incubated for 15 mins
T2 sequence (P07202 whole entry): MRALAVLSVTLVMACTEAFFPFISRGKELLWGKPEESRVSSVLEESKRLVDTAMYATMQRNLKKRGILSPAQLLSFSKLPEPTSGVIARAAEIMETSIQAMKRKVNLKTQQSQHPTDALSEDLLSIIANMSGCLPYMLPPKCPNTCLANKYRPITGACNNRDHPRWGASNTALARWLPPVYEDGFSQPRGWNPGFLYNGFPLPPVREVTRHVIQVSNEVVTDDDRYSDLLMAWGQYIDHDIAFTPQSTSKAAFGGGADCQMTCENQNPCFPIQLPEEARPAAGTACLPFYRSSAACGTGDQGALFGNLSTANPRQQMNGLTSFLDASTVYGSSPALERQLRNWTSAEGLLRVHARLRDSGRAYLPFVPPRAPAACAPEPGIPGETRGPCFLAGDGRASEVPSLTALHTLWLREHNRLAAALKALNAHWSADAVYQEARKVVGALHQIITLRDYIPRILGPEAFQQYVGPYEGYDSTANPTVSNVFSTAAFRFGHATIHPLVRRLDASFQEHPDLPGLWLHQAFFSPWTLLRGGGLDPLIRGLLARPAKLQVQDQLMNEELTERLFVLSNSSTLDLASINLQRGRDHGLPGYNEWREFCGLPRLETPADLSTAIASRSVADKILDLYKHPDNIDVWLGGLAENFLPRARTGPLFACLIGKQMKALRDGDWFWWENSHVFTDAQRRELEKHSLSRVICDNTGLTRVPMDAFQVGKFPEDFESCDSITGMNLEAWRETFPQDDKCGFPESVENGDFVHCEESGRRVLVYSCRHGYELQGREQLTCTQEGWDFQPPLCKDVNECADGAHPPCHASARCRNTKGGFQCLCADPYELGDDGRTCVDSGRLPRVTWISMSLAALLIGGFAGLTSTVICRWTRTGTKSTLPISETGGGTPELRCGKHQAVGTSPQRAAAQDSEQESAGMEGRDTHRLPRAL

[3] = target: CYP3A4 (Homo sapiens, UniProt P08684); assay: Ratio of IC50 for time dependent inhibition of CYP3A4 (unknown origin) measured at 5 mins to IC50 for time dependent inhibition of CYP3A4 (unknown origin) measured at 30 mins; conditions: read-out: Ratio IC50
[4] = target: Cytochrome P450 3A4 (Homo sapiens, UniProt P08684); assay: Time dependent inhibition of CYP3A4 (unknown origin) measured at 30 mins; format: ADME
[5] = target: T1, Myeloperoxidase; assay: Inhibition of PMA-induced MPO in human Neutrophil incubated for 3 mins by luminometry; format: tissue-based
[6] = Protein binding in human plasma; format: ADME, cell-free; conditions: read-out: PPB (converted)
[7] = Permeability of the compound by PAMPA method; format: ADME
[8] = Half life in mouse at 1 mg/kg, iv; format: ADME, organism-based; conditions: in vivo
[9] = Clearance in mouse at 1 mg/kg, iv; format: ADME, organism-based; conditions: in vivo
[10] = Half life in human liver microsomes; format: ADME, Microsome
[11] = Volume of distribution at steady state in mouse at 1 mg/kg, iv; format: ADME, organism-based; conditions: in vivo, read-out: Vdss
[12] = species on record: Homo sapiens; assay: as §1, with “Selectivity ratio” for “Inhibition”, “of IC50 for MPO (unknown origin) chlorination activity incubated for 10 mins followed by NaCl addition by aminophenyl fluorescein assay to IC50 for” for “of”

Chain of Cytochrome P450 3A4 (P08684 whole entry): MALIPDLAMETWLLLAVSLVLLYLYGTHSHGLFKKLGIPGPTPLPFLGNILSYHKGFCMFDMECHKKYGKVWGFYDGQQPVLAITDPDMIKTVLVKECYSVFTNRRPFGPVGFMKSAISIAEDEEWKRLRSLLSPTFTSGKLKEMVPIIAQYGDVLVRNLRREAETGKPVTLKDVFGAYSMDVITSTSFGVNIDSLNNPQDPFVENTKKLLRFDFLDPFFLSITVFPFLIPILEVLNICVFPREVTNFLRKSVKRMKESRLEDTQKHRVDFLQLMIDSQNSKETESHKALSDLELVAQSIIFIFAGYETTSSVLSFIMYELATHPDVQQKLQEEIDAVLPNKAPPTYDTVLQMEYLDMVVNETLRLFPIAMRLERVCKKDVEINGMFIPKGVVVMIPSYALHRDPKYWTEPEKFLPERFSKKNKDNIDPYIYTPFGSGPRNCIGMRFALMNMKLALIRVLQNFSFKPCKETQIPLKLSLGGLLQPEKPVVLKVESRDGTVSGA
Chain of CYP3A4 (P08684 whole entry): as above

Row | Structure (SMILES) | IC50 [1] [nM] | IC50 [2] [nM] | IC50 shift [3] | IC50 [4] [nM] | also measured
1 | Nc1cc(Cc2ccn(-c3cccc(-c4ccccc4)c3)n2)c2nn[nH]c2n1 | 85 | 710 | 2.4 | 7.1 | –
2 | Nc1cc(Cc2ccn(-c3ccccn3)n2)c2nn[nH]c2n1 | 54 | 2000 | 3.2 | 210 | –
3 | Nc1cc(C2CCNC34CCC(c5ccccc5)(CC3)[C@H](C4)Oc3cccc(c3)Cn3cc2cn3)c2nn[nH]c2n1 (stereo partly drawn) | 7 | – | – | – | –
4 | Nc1cc(C2CCNCCc3cccc(c3)Oc3cccc(c3)Cn3cc2cn3)c2nn[nH]c2n1 (stereo not drawn) | 14 | – | – | – | –
5 | Nc1cc(Cc2ccn(Cc3cccc(O[C@H]4CCNC4)c3)n2)c2nn[nH]c2n1 | 46 | 14000 | 1.6 | 13000 | –
6 | Nc1cc(Cc2ccn(Cc3ccc4ccccc4c3)n2)c2nn[nH]c2n1 | 52 | 1100 | 2.4 | 40 | –
7 | Nc1cc(Cc2ccn(Cc3cccc(C4CCNCC4)c3)n2)c2nn[nH]c2n1 | 100 | 21000 | 4.3 | 3300 | IC50 [5]: 2400 nM; fraction unbound [6]: 0.2; permeability [7]: Impermeable; half-life [8]: 1.2 h; clearance [9]: 2.6 mL/min/kg; half-life [10]: > 2 h; Vd [11]: 0.2 L/kg
8 | Nc1cc(Cc2ccn(-c3ccccc3)n2)c2nn[nH]c2n1 | 55 | 640 | 2.7 | 210 | –
9 | Nc1cc([C@H]2CCN[C@H]3C[C@H](Cc4ccccc4)[C@@H](C3)Oc3cccc(c3)Cn3cc2cn3)c2nn[nH]c2n1 | 5 | – | – | – | –
10 | Nc1cc(C2CCNCc3cccc(c3)COc3cccc(c3)Cn3cc2cn3)c2nn[nH]c2n1 (stereo not drawn) | 25 | – | – | – | –
11 | Nc1cc(C2CCNCc3cccc(c3)Oc3cccc(c3)Cn3cc2cn3)c2nn[nH]c2n1 (stereo not drawn) | 36 | – | – | – | –
12 | Nc1cc(C2CCNCC3(CCCC3)COc3cccc(c3)Cn3cc2cn3)c2nn[nH]c2n1 (stereo not drawn) | 26 | – | – | – | –
13 | Nc1cc(Cc2ccn(Cc3ccc4cnccc4c3)n2)c2nn[nH]c2n1 | 140 | 1800 | 4.1 | 210 | –
14 | Nc1cc(Cc2ccn(Cc3cccc(-c4ccccc4)c3)n2)c2nn[nH]c2n1 | 55 | 1100 | 2.8 | 17 | –
15 | Nc1cc(Cc2ccn(Cc3cccc(Oc4cccc5c4CNC5)c3)n2)c2nn[nH]c2n1 | 26 | 1700 | 3.3 | 140 | –
16 | Nc1cc(C2CCNC3CCC(CC3)COc3cccc(c3)Cn3cc2cn3)c2nn[nH]c2n1 (stereo not drawn) | 31 | – | – | – | –
17 | Nc1cc(C2CCNCCc3cccc(c3)-c3cccc(c3)Cn3cc2cn3)c2nn[nH]c2n1 (stereo not drawn) | 21 | – | – | – | –
18 | Nc1cc(Cc2ccn(-c3ccc(F)cc3)n2)c2nn[nH]c2n1 | 53 | 700 | 3.3 | 110 | –
19 | Nc1cc(C2CCNCCc3cccc(c3)OCc3cccc(c3)Cn3cc2cn3)c2nn[nH]c2n1 (stereo not drawn) | 17 | – | – | – | –
20 | Nc1cc(C2CCNCC(=O)N(CCc3ccccc3)Cc3cccc(c3)Cn3cc2cn3)c2nn[nH]c2n1 (stereo not drawn) | 29 | – | – | – | –
21 | Nc1cc(Cc2ccn(Cc3ccc4c(c3)CCNC4)n2)c2nn[nH]c2n1 | 58 | 6700 | 2.8 | 7000 | IC50 [5]: 5000 nM; fraction unbound [6]: 0.5; Ratio IC50 [12]: 120; half-life [10]: > 2 h
22 | Nc1cc(Cc2ccn(Cc3cccc(Cc4ccccc4)c3)n2)c2nn[nH]c2n1 | 39 | 1900 | 2.8 | 37 | –
23 | Nc1cc(Cc2ccn(Cc3cccc(Oc4ccccc4)c3)n2)c2nn[nH]c2n1 | 44 | 1100 | 2.9 | 11 | –
24 | Nc1cc(C2CCNCc3cccc(c3)OCc3cccc(c3)Cn3cc2cn3)c2nn[nH]c2n1 (stereo not drawn) | 8 | – | – | – | –
25 | Nc1cc(Cc2ccn(Cc3ccccc3)n2)c2nn[nH]c2n1 | 120 | 2300 | 3.2 | 310 | –
